{
  "source": "patent US20110293676A1",
  "about": "“Oral Cephalotaxine Dosage Forms” (ChemGenex Pharmaceuticals, Inc., priority 2007, published 2011)",
  "key": {"[1]": {"test": "Observation for mortality, morbidity and adverse events in the mouse pharmacokinetic study", "type": "in vivo, male CD-1 mice", "conditions": "single dose 0.41 or 1.6 mg/kg p.o. or s.c., observed until 7 days after last blood collection", "procedure": "Animals were observed twice daily (in the morning and in the evening) for mortality and morbidity beginning at the time of arrival from the vendor until the scheduled sacrifice 7 days after the last blood collection. Prior to dosing, each animal was removed from its cage and observed for signs of poor health and abnormal behavior. All animals were weighed prior to dosing.\nNo unscheduled sacrifices or deaths were recorded. Animals were sacrificed via CO2 7 days after the completion of blood draws."}, "[2]": {"test": "Pharmacokinetic study of homoharringtonine in mice, oral vs subcutaneous, plasma HHT content", "type": "in vivo, male CD-1 mice", "design": "Tmax / t-½: unit not given here", "conditions": "for Concentration of HHT in mouse sodium heparin plasma: single dose; for BA po/sc % / Cmax / Tmax / AUC / t-½: mouse; for AUC / t-½: WINNONLIN NCA model", "procedure": "To evaluate the potential for the development of an oral formulation of homoharringtonine, a pharmacokinetic study was performed in mice. Homoharringtonine was given, at 2 doses, by either oral or subcutaneous routes to male CD-1 mice. After a single administration, blood was collected from the tail vein and analyzed for homoharringtonine content. The animal dosing was performed by Murigenics (Berkeley, Calif.) and the analysis of sera was performed by PHARMout (Sunnyvale, Calif.). […] This bioavailability is considered very good.\nHomoharringtonine was manufactured by Stragen for ChemGenex Pharmaceuticals. 5 mg of lyophilized homoharringtonine was provided in a glass vial and was stable at room temperature. The vehicle was 0.9% sodium chloride supplied with the test agent in a separate vial. 27 male CD-1 mice, 8-10 weeks old (Charles River Laboratories) were used for this study. 24 mice were used for dosing, and 3 mice were used as naïve controls.\nOn the day of the study, 5 ml of saline were added to the 5 mg vial to make a stock of 1 mg/ml HHT. The amount administered for each mouse was based on weight, using a dose volume of 4 ml/kg. The dosing administration was performed according to Table 1.\nTest subjects were dosed once. The enzyme blocker was provided in two separate tubes (A & B) Immediately prior to blood collection, 20 μL each of A and B were aliquoted into a small tube (to yield 40 μL of enzyme inhibitor).\nBlood from 3 naïve mice was collected for a 0 timepoint. Approximately 50 μL of whole blood per animal (n=3 mice per time point) was collected into heparinized capillary tubes. Heparanized blood was transferred into tubes containing 40 μL of enzyme inhibitor. Samples were clearly marked by PK timepoint and group. Blood was stored on ice until centrifugation. There were 6 mice treated at each dose, but blood was pooled from 3 mice per time point so that each mouse had blood collected at every other timepoint. There were the following timepoints: 0, 15 min, 30 min, 2 hr, 4 hr and 8 hr after the administration of homoharringtonine. There were three samples collected for the T=0 from naïve mice. There were 5 samples collected for each dose, corresponding to the timepoints, 15 min, 30 min, 2 hr, 4 hr and 8 hr after the administration of homoharrigntonine. There were 2 doses for each route, and 2 routes of administration, so there were a total of 20 samples collected from treated mice. Plasma tubes were spun to prepare plasma, frozen to −80° C. and shipped on dry ice to PHARMout for bioanalytical work up.\nThe Cmax of the oral doses was 4 and 30 ng/mL for the 410 and 1600 μg/kg oral doses, respectively."}},
  "data": [
    {"molecule": "COC(=O)C[C@](O)(CCCC(C)(C)O)C(=O)O[C@@H]1C(OC)=C[C@]23CCCN2CCc2cc4c(cc2[C@H]13)OCO4", "note": "[HHT, cephalotaxine, 4-methyl-2-hydroxy-2-(4-hydroxy-4-methylpentyl) butanediocate ester]", "values": [
      {"measurement": "mortality and morbidity", "setting": "[1]", "result": "No mortalities or signs of morbidity were observed"},
      {"measurement": "Concentration of HHT in mouse sodium heparin plasma", "setting": "[2]; Group 1: 0.41 mg/kg p.o., 15 min", "result": 3.54, "unit": "ng/mL"},
      {"measurement": "Concentration of HHT in mouse sodium heparin plasma", "setting": "[2]; Group 1: 0.41 mg/kg p.o., 30 min", "result": 3.59, "unit": "ng/mL"},
      {"measurement": "Concentration of HHT in mouse sodium heparin plasma", "setting": "[2]; Group 1: 0.41 mg/kg p.o., 60 min", "result": 3.85, "unit": "ng/mL"},
      {"measurement": "Concentration of HHT in mouse sodium heparin plasma", "setting": "[2]; Group 1: 0.41 mg/kg p.o., 120 min", "result": 4.29, "unit": "ng/mL"},
      {"measurement": "Concentration of HHT in mouse sodium heparin plasma", "setting": "[2]; Group 1: 0.41 mg/kg p.o., 240 min", "result": 1.81, "unit": "ng/mL"},
      {"measurement": "Concentration of HHT in mouse sodium heparin plasma", "setting": "[2]; Group 1: 0.41 mg/kg p.o., 480 min", "result": 1.65, "unit": "ng/mL"},
      {"measurement": "Concentration of HHT in mouse sodium heparin plasma", "setting": "[2]; Group 2: 0.41 mg/kg s.c., 15 min", "result": 20.4, "unit": "ng/mL"},
      {"measurement": "Concentration of HHT in mouse sodium heparin plasma", "setting": "[2]; Group 2: 0.41 mg/kg s.c., 30 min", "result": 11.2, "unit": "ng/mL"},
      {"measurement": "Concentration of HHT in mouse sodium heparin plasma", "setting": "[2]; Group 2: 0.41 mg/kg s.c., 60 min", "result": 6.20, "unit": "ng/mL"},
      {"measurement": "Concentration of HHT in mouse sodium heparin plasma", "setting": "[2]; Group 2: 0.41 mg/kg s.c., 120 min", "result": 3.59, "unit": "ng/mL"},
      {"measurement": "Concentration of HHT in mouse sodium heparin plasma", "setting": "[2]; Group 2: 0.41 mg/kg s.c., 240 min", "result": 2.44, "unit": "ng/mL"},
      {"measurement": "Concentration of HHT in mouse sodium heparin plasma", "setting": "[2]; Group 2: 0.41 mg/kg s.c., 480 min", "result": "BQL (Below the quantification limit (1.00 ng/mL))"},
      {"measurement": "Concentration of HHT in mouse sodium heparin plasma", "setting": "[2]; Group 3: 1.6 mg/kg p.o., 15 min", "result": 6.58, "unit": "ng/mL"},
      {"measurement": "Concentration of HHT in mouse sodium heparin plasma", "setting": "[2]; Group 3: 1.6 mg/kg p.o., 30 min", "result": 8.87, "unit": "ng/mL"},
      {"measurement": "Concentration of HHT in mouse sodium heparin plasma", "setting": "[2]; Group 3: 1.6 mg/kg p.o., 60 min", "result": 29.9, "unit": "ng/mL"},
      {"measurement": "Concentration of HHT in mouse sodium heparin plasma", "setting": "[2]; Group 3: 1.6 mg/kg p.o., 120 min", "result": 9.18, "unit": "ng/mL"},
      {"measurement": "Concentration of HHT in mouse sodium heparin plasma", "setting": "[2]; Group 3: 1.6 mg/kg p.o., 240 min", "result": 5.52, "unit": "ng/mL"},
      {"measurement": "Concentration of HHT in mouse sodium heparin plasma", "setting": "[2]; Group 3: 1.6 mg/kg p.o., 480 min", "result": 4.19, "unit": "ng/mL"},
      {"measurement": "Concentration of HHT in mouse sodium heparin plasma", "setting": "[2]; Group 4: 1.6 mg/kg s.c., 15 min", "result": 54.4, "unit": "ng/mL"},
      {"measurement": "Concentration of HHT in mouse sodium heparin plasma", "setting": "[2]; Group 4: 1.6 mg/kg s.c., 30 min", "result": 15.4, "unit": "ng/mL"},
      {"measurement": "Concentration of HHT in mouse sodium heparin plasma", "setting": "[2]; Group 4: 1.6 mg/kg s.c., 60 min", "result": 35.3, "unit": "ng/mL"},
      {"measurement": "Concentration of HHT in mouse sodium heparin plasma", "setting": "[2]; Group 4: 1.6 mg/kg s.c., 120 min", "result": 6.38, "unit": "ng/mL"},
      {"measurement": "Concentration of HHT in mouse sodium heparin plasma", "setting": "[2]; Group 4: 1.6 mg/kg s.c., 240 min", "result": 7.72, "unit": "ng/mL"},
      {"measurement": "Concentration of HHT in mouse sodium heparin plasma", "setting": "[2]; Group 4: 1.6 mg/kg s.c., 480 min", "result": 3.10, "unit": "ng/mL"},
      {"measurement": "BA po/sc %", "setting": "[2]; 410 ug/kg, oral compared with subcutaneous dosing", "result": 76, "unit": "%"},
      {"measurement": "BA po/sc %", "setting": "[2]; 1600 ug/kg, oral based on the subcutaneous dose", "result": 77, "unit": "%"},
      {"measurement": "Cmax", "setting": "[2]; po, 410 ug/kg (1.2 mg/m2)", "result": 4, "unit": "ng/mL"},
      {"measurement": "Tmax", "setting": "[2]; po, 410 ug/kg (1.2 mg/m2)", "result": 120},
      {"measurement": "AUC", "setting": "[2]; po, 410 ug/kg (1.2 mg/m2)", "result": 1217, "unit": "ng·min/mL"},
      {"measurement": "t-½", "setting": "[2]; po, 410 ug/kg (1.2 mg/m2)", "result": 297},
      {"measurement": "Cmax", "setting": "[2]; po, 1600 ug/kg (4.8 mg/m2)", "result": 30, "unit": "ng/mL"},
      {"measurement": "Tmax", "setting": "[2]; po, 1600 ug/kg (4.8 mg/m2)", "result": 60},
      {"measurement": "AUC", "setting": "[2]; po, 1600 ug/kg (4.8 mg/m2)", "result": 3966, "unit": "ng·min/mL"},
      {"measurement": "t-½", "setting": "[2]; po, 1600 ug/kg (4.8 mg/m2)", "result": 341},
      {"measurement": "Cmax", "setting": "[2]; sc, 410 ug/kg (1.2 mg/m2)", "result": 20, "unit": "ng/mL"},
      {"measurement": "Tmax", "setting": "[2]; sc, 410 ug/kg (1.2 mg/m2)", "result": 15},
      {"measurement": "AUC", "setting": "[2]; sc, 410 ug/kg (1.2 mg/m2)", "result": 1599, "unit": "ng·min/mL"},
      {"measurement": "t-½", "setting": "[2]; sc, 410 ug/kg (1.2 mg/m2)", "result": 215},
      {"measurement": "Cmax", "setting": "[2]; sc, 1600 ug/kg (4.8 mg/m2)", "result": 54, "unit": "ng/mL"},
      {"measurement": "Tmax", "setting": "[2]; sc, 1600 ug/kg (4.8 mg/m2)", "result": 15},
      {"measurement": "AUC", "setting": "[2]; sc, 1600 ug/kg (4.8 mg/m2)", "result": 5087, "unit": "ng·min/mL"},
      {"measurement": "t-½", "setting": "[2]; sc, 1600 ug/kg (4.8 mg/m2)", "result": 306}
    ]}
  ]
}
